In patent publication US10168342B2, “Lipid probes and uses thereof” (THE SCRIPPS RESEARCH INSTITUTE, priority 2015, dated 2019):
Read-outs that look alike come from different tables or passages of the source.

Legend:
[1] = target: T1, AEA-DA lipid probe targets in Neuro2a cells (Mus musculus, UniProt P10404)
T1 sequence (P10404 33-641): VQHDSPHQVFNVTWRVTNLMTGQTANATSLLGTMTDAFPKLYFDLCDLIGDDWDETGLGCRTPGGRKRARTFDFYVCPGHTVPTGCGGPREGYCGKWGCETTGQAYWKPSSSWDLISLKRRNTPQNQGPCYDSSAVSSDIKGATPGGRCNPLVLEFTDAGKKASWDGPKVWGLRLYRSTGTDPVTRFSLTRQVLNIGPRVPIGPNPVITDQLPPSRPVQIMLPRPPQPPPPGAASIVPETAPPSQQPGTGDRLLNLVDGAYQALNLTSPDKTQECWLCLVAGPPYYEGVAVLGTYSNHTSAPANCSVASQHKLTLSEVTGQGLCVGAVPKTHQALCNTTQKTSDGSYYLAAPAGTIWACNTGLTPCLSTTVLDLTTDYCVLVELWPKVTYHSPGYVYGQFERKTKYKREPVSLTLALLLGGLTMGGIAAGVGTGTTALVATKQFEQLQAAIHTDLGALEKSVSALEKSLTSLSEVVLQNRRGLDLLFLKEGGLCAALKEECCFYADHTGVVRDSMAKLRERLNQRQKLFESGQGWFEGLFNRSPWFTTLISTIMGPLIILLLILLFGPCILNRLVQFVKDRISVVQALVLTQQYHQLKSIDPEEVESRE

[2] = target: AEA-DA lipid probe targets in Neuro2a cells (Mus musculus, UniProt Q60715)
AEA-DA lipid probe targets in Neuro2a cells (Mus musculus, UniProt Q60715), sequence (Q60715 18-534): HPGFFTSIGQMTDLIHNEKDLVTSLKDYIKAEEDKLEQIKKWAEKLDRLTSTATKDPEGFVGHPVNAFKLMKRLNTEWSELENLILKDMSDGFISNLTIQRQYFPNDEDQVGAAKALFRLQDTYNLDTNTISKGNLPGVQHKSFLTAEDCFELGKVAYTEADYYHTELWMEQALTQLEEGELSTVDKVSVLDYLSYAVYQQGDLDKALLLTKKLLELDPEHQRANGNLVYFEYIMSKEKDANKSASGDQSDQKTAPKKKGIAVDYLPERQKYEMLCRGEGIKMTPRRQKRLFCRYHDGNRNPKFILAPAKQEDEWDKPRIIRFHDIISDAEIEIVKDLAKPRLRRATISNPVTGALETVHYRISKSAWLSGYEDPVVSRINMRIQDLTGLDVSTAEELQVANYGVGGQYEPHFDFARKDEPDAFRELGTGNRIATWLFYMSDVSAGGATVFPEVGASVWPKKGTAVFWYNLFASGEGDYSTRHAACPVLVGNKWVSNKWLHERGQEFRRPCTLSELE

[3] = target: T2, AEA-DA lipid probe targets in Neuro2a cells (Mus musculus, UniProt Q9DBH5)
T2 sequence (Q9DBH5 47-358): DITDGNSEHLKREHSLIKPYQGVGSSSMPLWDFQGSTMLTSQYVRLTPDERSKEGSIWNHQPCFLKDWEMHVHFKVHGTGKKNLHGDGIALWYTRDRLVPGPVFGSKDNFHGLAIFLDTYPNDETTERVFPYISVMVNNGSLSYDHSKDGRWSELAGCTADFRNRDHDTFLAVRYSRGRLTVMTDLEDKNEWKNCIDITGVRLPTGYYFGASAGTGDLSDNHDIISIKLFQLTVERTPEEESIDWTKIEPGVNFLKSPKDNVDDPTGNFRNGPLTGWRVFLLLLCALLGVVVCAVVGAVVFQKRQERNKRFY

[4] = target: T3, AEA-DA lipid probe targets in Neuro2a cells (Mus musculus, UniProt Q8BXN9)
T3 sequence (Q8BXN9 22-555): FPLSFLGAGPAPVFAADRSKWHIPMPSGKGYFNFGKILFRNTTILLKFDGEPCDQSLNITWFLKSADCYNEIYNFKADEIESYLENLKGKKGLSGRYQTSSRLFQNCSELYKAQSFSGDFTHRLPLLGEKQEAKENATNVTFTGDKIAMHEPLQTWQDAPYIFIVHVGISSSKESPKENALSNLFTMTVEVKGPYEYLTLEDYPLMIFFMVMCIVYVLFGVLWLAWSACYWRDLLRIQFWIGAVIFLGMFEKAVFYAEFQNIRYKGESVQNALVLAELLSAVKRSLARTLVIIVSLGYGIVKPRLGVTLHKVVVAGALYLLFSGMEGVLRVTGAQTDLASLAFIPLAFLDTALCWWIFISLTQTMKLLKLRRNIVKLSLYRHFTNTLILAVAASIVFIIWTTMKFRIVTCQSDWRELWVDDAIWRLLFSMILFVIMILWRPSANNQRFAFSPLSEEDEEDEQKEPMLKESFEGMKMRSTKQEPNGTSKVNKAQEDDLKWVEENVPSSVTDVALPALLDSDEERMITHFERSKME

[5] = target: T4, AEA-DA lipid probe targets in Neuro2a cells (Mus musculus, UniProt Q61335)
T4 sequence (Q61335 1-245): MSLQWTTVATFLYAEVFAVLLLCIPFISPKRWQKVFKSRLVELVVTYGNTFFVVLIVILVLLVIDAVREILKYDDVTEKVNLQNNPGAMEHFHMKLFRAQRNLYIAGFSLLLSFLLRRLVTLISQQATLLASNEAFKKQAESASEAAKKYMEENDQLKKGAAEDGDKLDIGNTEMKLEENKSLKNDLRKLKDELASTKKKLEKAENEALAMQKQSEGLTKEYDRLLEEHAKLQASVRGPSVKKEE

[6] = target: T5, AEA-DA lipid probe targets in Neuro2a cells (Mus musculus, UniProt Q3TZX3)
T5 sequence (Q3TZX3 1-320): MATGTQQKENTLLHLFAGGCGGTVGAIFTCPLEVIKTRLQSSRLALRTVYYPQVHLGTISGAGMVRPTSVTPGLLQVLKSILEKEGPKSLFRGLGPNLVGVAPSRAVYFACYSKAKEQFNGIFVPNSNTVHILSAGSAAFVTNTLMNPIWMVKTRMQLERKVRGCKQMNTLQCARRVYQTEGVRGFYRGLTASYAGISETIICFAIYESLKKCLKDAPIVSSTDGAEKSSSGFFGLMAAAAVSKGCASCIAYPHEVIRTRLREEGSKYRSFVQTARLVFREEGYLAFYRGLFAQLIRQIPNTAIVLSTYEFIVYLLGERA

[7] = target: T6, AEA-DA lipid probe targets in Neuro2a cells (Mus musculus, UniProt Q9D6K9)
T6 sequence (Q9D6K9 1-414): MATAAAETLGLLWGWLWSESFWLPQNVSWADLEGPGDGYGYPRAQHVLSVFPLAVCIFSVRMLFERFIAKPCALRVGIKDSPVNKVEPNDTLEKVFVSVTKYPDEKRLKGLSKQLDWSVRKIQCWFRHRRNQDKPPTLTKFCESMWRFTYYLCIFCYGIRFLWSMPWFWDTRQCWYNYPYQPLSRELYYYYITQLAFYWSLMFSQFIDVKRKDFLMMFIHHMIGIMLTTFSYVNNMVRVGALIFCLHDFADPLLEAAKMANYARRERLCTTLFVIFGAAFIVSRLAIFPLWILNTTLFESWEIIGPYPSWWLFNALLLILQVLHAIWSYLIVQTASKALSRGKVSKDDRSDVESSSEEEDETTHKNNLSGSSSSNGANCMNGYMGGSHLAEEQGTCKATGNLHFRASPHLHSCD

Structure (SMILES)	SILAC ratio MLV-related ([1]; competitor 25 μM)	SILAC ratio P4ha1 ([2]; competitor 25 μM)	SILAC ratio Lman2 ([3]; competitor 25 μM)	SILAC ratio, Tmem87a ([4]; competitor 25 μM)	SILAC ratio, Bcap31 ([5]; competitor 25 μM)	SILAC ratio Slc25a33 ([6]; competitor 25 μM)	SILAC ratio, Cers5 ([7]; competitor 25 μM)	also measured
CCCCC/C=C\C/C=C\C/C=C\C/C=C\CCCC(=O)NCCO [AEA, anandamide, reference compound]								SILAC ratio MLV-related ([1]; competitor 200 μM): 1.4; SILAC ratio P4ha1 ([2]; competitor 200 μM): 1.0; SILAC ratio Lman2 ([3]; competitor 200 μM): 1.5; SILAC ratio, Tmem87a ([4]; competitor 200 μM): 1.8; SILAC ratio, Bcap31 ([5]; competitor 200 μM): 2.3; SILAC ratio Slc25a33 ([6]; competitor 200 μM): 1.3; SILAC ratio, Cers5 ([7]; competitor 200 μM): 2.1
O=C(/C=C/c1cccnc1)NCCCCC1CCN(C(=O)c2ccccc2)CC1 [FK-866, reference compound]	1.1	1.1	1.1	1.1	1.6	1.2	1.1	
CN1CCN(C(=O)c2c(-c3ccccc3)c3cc([N+](=O)[O-])ccc3n2C)CC1 [KML110, (1-Methyl-5-nitro-3-phenyl-1H-indol-2-yl)(4-methylpiperazin-1-yl)methanone]	1.2		1.3	1.8	2.0	1.4	1.6	
CN1CCN(C(=O)c2[nH]c3ccc([N+](=O)[O-])cc3c2-c2ccccc2)CC1 [MJN228, (4-Methylpiperazin-1-yl)(5-nitro-3-phenyl-1H-indol-2-yl)methanone]	1.8		1.1	1.9	2.5	1.2	1.8	SILAC ratio MLV-related ([1]; competitor 10 μM): 1.8; SILAC ratio MLV-related ([1]; competitor 50 μM): 1.7; SILAC ratio MLV-related ([1]; competitor 100 μM): 2.5; SILAC ratio P4ha1 ([2]; competitor 10 μM): 1.3; SILAC ratio Lman2 ([3]; competitor 10 μM): 1.2; SILAC ratio Lman2 ([3]; competitor 50 μM): 2.1; SILAC ratio Lman2 ([3]; competitor 100 μM): 1.5; SILAC ratio, Tmem87a ([4]; competitor 10 μM): 1.3; SILAC ratio, Tmem87a ([4]; competitor 50 μM): 1.6; SILAC ratio, Tmem87a ([4]; competitor 100 μM): 2.7; SILAC ratio, Bcap31 ([5]; competitor 10 μM): 2.1; SILAC ratio, Bcap31 ([5]; competitor 50 μM): 3.8; SILAC ratio, Bcap31 ([5]; competitor 100 μM): 4.0; SILAC ratio Slc25a33 ([6]; competitor 10 μM): 1.2; SILAC ratio Slc25a33 ([6]; competitor 50 μM): 0.9; SILAC ratio Slc25a33 ([6]; competitor 100 μM): 0.6; SILAC ratio, Cers5 ([7]; competitor 10 μM): 1.2; SILAC ratio, Cers5 ([7]; competitor 50 μM): 2.1; SILAC ratio, Cers5 ([7]; competitor 100 μM): 3.0
C=CCN(C)CCCCCCOc1ccc(C(=O)c2ccc(Br)cc2)c(F)c1 [Ro 48-8071, reference compound]	1.0	1.1	0.7	2.3	1.4	1.0	1.3	
